{"source": "patent US11535579B2", "about": "“Hydrofluoroolefin ethers, compositions, apparatuses and methods for using same” (3M INNOVATIVE PROPERTIES COMPANY, priority 2017, dated 2022)", "key": {"[1]": {"assay": "Thermal stability: stirred 24 h with or without adsorbent, purity by GC-FID", "assay_type": "physicochemical", "procedure": "The samples were stirred for 24 h at the temperatures indicated in Table 4 and then analyzed for purity by GC-FID."}, "[2]": {"assay": "Kinematic viscosity (AVS 350 Viscosity Timer, glass viscometer)", "assay_type": "physicochemical", "procedure": "Kinematic viscosity of PE-1 was measured using a Viscosity Timer available under the trade designation “AVS 350” from SI Analytics, College Station, Tex., USA. For temperatures below 0° C., a temperature control bath available from Lawler Manufacturing Corporation, Edison, N.J., USA was used. The viscometer measurements stand and glass viscometer were immersed in a temperature-controlled liquid bath filled with NOVEC 7500. The Lawler temperature bath was fitted with a copper tubing coil for liquid nitrogen cooling with fine temperature control provided by the bath's electronic temperature control heater. The fluid was mechanically stirred to provide uniform temperature in the bath. The bath controls temperature within 0.1° C., measured by the built-in RTD temperature sensor. The sample liquid was added to the viscometer between the two fill lines etched on the viscometer. The AVS 350 automatically pumped the sample fluid above the upper timing mark then released the fluid followed by measurement of efflux times between the upper and lower timing marks. The fluid meniscus was detected by optical sensors as it passed each timing mark. The sample was drawn up and measured repeatedly, averaging multiple measurements.\nThe glass viscometers were calibrated using certified kinematic viscosity standard fluids available from Cannon Instrument Company, State College, Pa., USA to obtain a calibration constant (centistokes per second) for each viscometer.\nThe measured kinematic viscosity (centistokes) which is the average efflux time (seconds)×constant (centistokes/second) is presented in Table 3. The data summarized in Table 3 indicates a favorable low temperature liquid range, which renders these materials useful in heat transfer applications."}}, "data": [{"smiles": "FC(F)(F)C(F)(F)C(F)(F)OC/C=C/COC(F)(F)C(F)(F)C(F)(F)F", "note": "[PE-1, (E)-1,4-bis(perfluoropropoxy)but-2-ene]", "values": [{"measurement": "Purity (thermal stability)", "setting": "[1]; 4 Angstrom Molecular Sieves 100 mg, 60 °C", "value": 91.9, "unit": "%"}, {"measurement": "Purity (thermal stability)", "setting": "[1]; Activated Carbon 100 mg, 60 °C", "value": 91.8, "unit": "%"}, {"measurement": "Purity (thermal stability)", "setting": "[1]; Basic Alumina 100 mg, 60 °C", "value": 92.0, "unit": "%"}, {"measurement": "Purity (thermal stability)", "setting": "[1]; K2CO3 100 mg, 60 °C", "value": 91.6, "unit": "%"}, {"measurement": "Purity (thermal stability)", "setting": "[1]; No Adsorbent, 25 °C", "value": 91.7, "unit": "%"}, {"measurement": "Purity (thermal stability)", "setting": "[1]; No Adsorbent, 60 °C", "value": 91.7, "unit": "%"}, {"measurement": "Purity (thermal stability)", "setting": "[1]; Silica Gel 100 mg, 60 °C", "value": 91.7, "unit": "%"}, {"measurement": "Kinematic Viscosity", "setting": "[2]; 0.0 °C", "value": 3.16, "unit": "cSt"}, {"measurement": "Kinematic Viscosity", "setting": "[2]; −10.0 °C", "value": 4.28, "unit": "cSt"}, {"measurement": "Kinematic Viscosity", "setting": "[2]; −30.0 °C", "value": 10.24, "unit": "cSt"}, {"measurement": "Kinematic Viscosity", "setting": "[2]; −40.0 °C", "value": 17.44, "unit": "cSt"}, {"measurement": "Kinematic Viscosity", "setting": "[2]; −50.0 °C", "value": 28.23, "unit": "cSt"}, {"measurement": "Kinematic Viscosity", "setting": "[2]; −60.0 °C", "value": 59.59, "unit": "cSt"}]}]}
